Tests used:
HEK293 cells = test: apoptosis in HEK293 cells; type: cell-based; conditions: upon treatment
xenopus embryos = test: xenopus embryo development and marker gene expression; type: in vivo
Text: Previous studies highlighted the importance of Wnt pathway signaling in promoting cellular differentiation. Accordingly, the physiological relevance of the Wnt inhibitory functions of 1 was shown by the effect of this compound on the morphology of xenopus embryos during embryonic development. […] Vent2 and Otx2 are regulated by TCF3 during anteroposterior axis specification in xenopus embryos and HIPK2 antagonizes them through phosphorylation of TCF3. These phenotypes are very similar to embryos with TCF3-knockout and contrast to those of HIPK2-knockout. Together, the observations indicate that compound 1 activates HIPK2 to remove TCF proteins from their target DNA via phosphorylation.

[1] = tested on: SW480 colorectal cancer model cell line; test: SW480 cell proliferation and cell cycle (InCell 1000); type: cell-based, human
Text: Previous studies have shown that the Wnt signaling pathway drives cellular proliferation of a number of cancers through up-regulation of genes for several proteins crucial for cell division including Cyclin D1, c-Myc, etc. and treatment of cancer cells with 1 or analogs decreases cellular proliferation. Accordingly, we examined the effect of 1 and analogs on cell proliferation of human cancer cell lines. […] The results were confirmed by studying the effects of 1 on SW480 human colon cell cycle determined by cell images captured by InCell 1000.

[2] = tested on: normal human fibroblast cells; test: effect on normal human fibroblast cells; type: cell-based
[3] = xenopus embryos incubated with compound

O=C1CCCN1c1ccc(S(=O)(=O)N2CCCc3ccccc32)cc1 [Compound 1, 1-(4-(3,4-dihydroquinolin-1(2H)-ylsulfonyl)phenyl)pyrrolidin-2-one]
apoptotic HEK293 cells (HEK293 cells): increase in apoptotic HEK293 cells | posterior development of xenopus embryos (xenopus embryos; treatment during the mid-blastula transition): inhibited posterior development | anterior and ventral expression domain of Vent2 (xenopus embryos; [3]): expanded | anterior marker gene Otx2 expression (xenopus embryos; [3]): decreased anterior marker gene Otx2 | Ki67 protein levels ([1]; SW480 cells): elevated | cell cycle distribution ([1]; SW480 cells, InCell 1000 images): significantly more cells in G2 and less in G1/S phases | cancer cell proliferation (in words) ([1]; SW480 colon cancer cell line): significantly inhibited cancer cell proliferation | effect on normal human fibroblast cells [2]: did not have any affect on normal human fibroblast cells

From patent publication US9403800B2, “Compounds for inhibition of cancer cell proliferation” (ChemRegen, Inc., priority 2012, dated 2016)
